Experimental data taken from PMC8076879 (Acta Pharmacologica Sinica, 2021).

Tests used:
[1] = Cytotoxicity in Huh-7 cells, CCK8 assay; assay type: cell-based; conditions: human
[2] = Cytotoxicity in HEK293T cells, CCK8 assay; assay type: cell-based; conditions: human
in vitro = conditions: African green monkey
SARS-CoV-2 = conditions: read-out: anti-SARS-CoV-2 EC50 (reported); cited from earlier work
[3] = cited from earlier work
[4] = cited from earlier work; remark: listed apart in the source

SMILES	CC50 [1] [µM]	CC50 [2] [µM]	CC50 (in vitro) [µM]	EC50 (SARS-CoV-2) [µM]	crossing of the blood-brain barrier [3]	toxicity in animal toxicological experiments [4]
CC[C@H]1CN2CCc3cc(OC)c(OC)cc3[C@@H]2C[C@@H]1C[C@H]1NCCc2cc(O)c(OC)cc21 [cephaeline]	3.04 ± 1.7	2 ± 0.468	49 ± 46.3			
CC[C@H]1CN2CCc3cc(OC)c(OC)cc3[C@@H]2C[C@@H]1C[C@H]1NCCc2cc(OC)c(OC)cc21 [emetine]	0.0334 ± 0.000617	0.0378 ± 0.000562	2.17 ± 0.258	0.46		
O[C@H]1[C@H]2c3cc4c(cc3CN3CCC(=C[C@@H]1O)[C@H]23)OCO4 [lycorine]	0.834 ± 0.063	1.04 ± 0.0734	> 1000	0.31	able to cross the blood-brain barrier	low toxicity and mild side effects
